Measured values taken from patent US6369050B1, “Antibacterial agents” (Fujisawa Pharmaceutical Co., Ltd., priority 1998, dated 2002).
Like-named read-outs stand apart in the source and are kept apart here. Marks after values point to notes of the source that are not given here.

Experiments:
[1] = tested on: K. pneumoniae; experiment: Checkerboard method MIC, K. pneumoniae (Test Example 1); type: cell-based; conditions: for MIC: Klebsiella pneumoniae, antibiotic used alone, read-out: MIC, single use; for MIC, combined use: CFIX and AMPC used combinedly
Description: (§1) Checkerboard method (cf. Hideyo Yamaguchi: “Konnichi no Koseibusshitsu (Antibiotics of today)”, page 411, published by Nanzando)
(§2) The MIC of each antibiotic used singly and the MIC of each combination of antibiotics were determined by the standard method established by the Japan Society of Chemotherapy, using Mueller-Hinton agar medium (MHA, product of Difco) for M. catarrhalis and K. pneumoniae, 5% equine blood agar (MHA+5% equine blood) for S. pneumoniae, and MHA+5% equine blood (chocolate agar) for H. influenzae. A 100-fold dilution of an overnight culture of each bacterial strain was stamp-inoculated and, after 18 hours of incubation at 37° C. (in the case of S. pneumoniae and H. influenzae, in an atmosphere containing 5% carbon dioxide), the MIC was measured (in μg/ml)
(§3) The MIC's of two individual antibiotics and the MIC's of the two respective antibiotics used combinedly were determined by the checkerboard method and the fractional inhibitory concentration index (hereinafter, “FIC index”) was determined according to the equation shown below. [formula]
(§4) ao: MIC of antibiotic A used alone; b: MIC of antibiotic B used alone; a, b: MIC's of antibiotics A and B, respectively, when they are used combinedly.

[2] = tested on: penicillin G-resistant S. pneumoniae; experiment: Checkerboard method MIC, penicillin G-resistant S. pneumoniae (Test Example 1); type: cell-based; conditions: for MIC: Streptococcus pneumoniae, antibiotic used alone, read-out: MIC, single use; for MIC, combined use: CFIX and AMPC used combinedly
Description: as §1, §2, §3, §4

[3] = tested on: K. pneumoniae 15004; experiment: Mixed respiratory infection in mice, viable K. pneumoniae in the lung (Test Example 4); type: in vivo; conditions: oral, 2 days after infection
Description: (§5) ICR strain male mice (4 weeks old, 5 animals per group) given cyclophosphamide (200 mg/kg, ip) 4 days prior to infection were nasally infected with S. pneumoniae FP1906 (2.0×10^7 cfu/mouse) and K. pneumoniae 15004 (5.5×10^3 cfu/mouse). Each drug was orally administered three times (3, 18 and 26 hours after infection) and, at 2 days after infection, viable cells in the lung were counted.

[4] = tested on: S. pneumoniae FP1906; experiment: Mixed respiratory infection in mice, viable S. pneumoniae in the lung (Test Example 4); type: in vivo; conditions: oral, 2 days after infection
Description: as §5

MIC ([1]; strain 15004)	MIC ([1]; strain 15021)	MIC, combined use ([1]; strain 15004)	MIC ([2]; strain FP1884)	MIC ([2]; strain FP1885)	MIC ([2]; strain FP1891)	MIC ([2]; strain FP1906)	MIC, combined use ([2]; strain FP1884)	MIC, combined use ([2]; strain FP1885)	MIC, combined use ([2]; strain FP1891)	MIC, combined use ([2]; strain FP1906)	MIC, combined use ([1]; strain 15021)	SMILES	Viable cells in the lung (logarithm), K. pneumoniae ([3]; 10 mg/kg three times)	Viable cells in the lung (logarithm), K. pneumoniae ([3]; 50 mg/kg three times)	Viable cells in the lung (logarithm), S. pneumoniae ([4]; 10 mg/kg three times)	Viable cells in the lung (logarithm), S. pneumoniae ([4]; 50 mg/kg three times)
100 µg/mL	25 µg/mL	50 µg/mL	0.2 µg/mL	0.78 µg/mL	0.39 µg/mL	0.76 µg/mL	0.05 µg/mL	0.39 µg/mL	0.025 µg/mL	0.2 µg/mL	–	CC1(C)S[C@@H]2[C@H](NC(=O)[C@H](N)c3ccc(O)cc3)C(=O)N2[C@H]1C(=O)O [AMPC, amoxicillin]	9.32^*# logarithm	9.38^*# logarithm	7.04 logarithm	5.29^* logarithm
0.05 µg/mL	0.025 µg/mL	≦0.00313 μg/ml	12.5 µg/mL	6.25 µg/mL	3.13 µg/mL	12.5 µg/mL	0.78 µg/mL	0.1 µg/mL	0.78 µg/mL	1.56 µg/mL	0.0125 µg/mL	C=CC1=C(C(=O)O)N2C(=O)[C@@H](NC(=O)/C(=N\OCC(=O)O)c3csc(N)n3)[C@H]2SC1 [CFIX, Cefixime]	4.14 logarithm	2.34 logarithm	8.46^*# logarithm	8.26^*# logarithm
